# US12404289B2 (Gilead Sciences, Inc., priority 2020, dated 2025)
# Test system: Respiratory syncytial virus (RSV) strain A2
# Assay: RSV antiviral assay (HEp-2, 96 well)
# Type: cell-based
# Details: human respiratory syncytial virus, HEp-2, 96 h, read-out: EC50 RSV HEP2 96, HEp-2 cells, RSV A2, MOI=4, 4 days, 96 well; Table 3
row,Structure (SMILES),EC50 [nM]
1,"CCC(C)(C)CCOC(=O)[C@H](C)NP(=O)(OC[C@H]1O[C@@](C#N)(c2ccc3c(N)ncnn23)[C@H](OC(=O)C(C)C)[C@@H]1OC(=O)C(C)C)Oc1ccccc1 (stereo partly drawn) [Example 74, [(2R,3R,4R,5R)-5-(4-aminopyrrolo[2,1-f][1,2,4]triazin-7-yl)-5-cyano-2-[[[[(1S)-2-(3,3-dimethylpentoxy)-1-methyl-2-oxo-ethyl]amino]-phenoxy-phosphoryl]oxymethyl]-4-(2-methylpropanoyloxy)tetrahydrofuran-3-yl] 2-methylpropanoate]",131
2,"COC(C)(C)COC(=O)[C@H](C)N[P@](=O)(OC[C@H]1O[C@@](C#N)(c2ccc3c(N)ncnn23)[C@H](OC(=O)CC(C)C)[C@@H]1OC(=O)CC(C)C)Oc1ccccc1 [Example 168, (2R,3R,4R,5R)-2-(4-aminopyrrolo[2,1-f][1,2,4]triazin-7-yl)-2-cyano-5-((((S)—(((S)-1-(2-methoxy-2-methylpropoxy)-1-oxopropan-2-yl)amino)(phenoxy)phosphoryl)oxy)methyl)tetrahydrofuran-3,4-diyl bis(3-methylbutanoate)]",111
3,"CCCCCCOC(=O)[C@H](Cc1ccccc1)NP(=O)(OC[C@H]1O[C@@](C#N)(c2ccc3c(N)ncnn23)[C@H](OC(=O)C(C)C)[C@@H]1OC(=O)C(C)C)Oc1ccc(C(C)(C)C)cc1 (stereo partly drawn) [Example 123, (2R,3R,4R,5R)-2-(4-aminopyrrolo[2,1-f][1,2,4]triazin-7-yl)-5-((((4-(tert-butyl)phenoxy)(((S)-1-(hexyloxy)-1-oxo-3-phenylpropan-2-yl)amino)phosphoryl)oxy)methyl)-2-cyanotetrahydrofuran-3,4-diyl bis(2-methylpropanoate)]",63.7
4,"CCOCCOCCOC(=O)[C@H](C)NP(=O)(OC[C@H]1O[C@@](C#N)(c2ccc3c(N)ncnn23)[C@H](OC(=O)C(C)C)[C@@H]1OC(=O)C(C)C)Oc1ccc(C(C)(C)C)cc1 (stereo partly drawn) [Example 115, (2R,3R,4R,5R)-2-(4-aminopyrrolo[2,1-f][1,2,4]triazin-7-yl)-5-((((4-(tert-butyl)phenoxy)(((S)-1-(2-(2-ethoxyethoxy)ethoxy)-1-oxopropan-2-yl)amino)phosphoryl)oxy)methyl)-2-cyanotetrahydrofuran-3,4-diyl bis(2-methylpropanoate)]",62.6
5,"CCOC(=O)[C@H](C)NP(=O)(OC[C@H]1O[C@@](C#N)(c2ccc3c(N)ncnn23)[C@H](OC(=O)C(C)C)[C@@H]1OC(=O)C(C)C)Oc1ccc(C(C)C)cc1 (stereo partly drawn) [Example 64, [(2R,3R,4R,5R)-5-(4-aminopyrrolo[2,1-f][1,2,4]triazin-7-yl)-5-cyano-2-[[[[(1S)-2-ethoxy-1-methyl-2-oxo-ethyl]amino]-(4-isopropylphenoxy)phosphoryl]-oxymethyl]-4-(2-methylpropanoyloxy)tetrahydrofuran-3-yl] 2-methylpropanoate]",57.9
6,"CCC(CC)COC(=O)[C@H](C)NP(=O)(OC[C@H]1O[C@@](C#N)(c2ccc3c(N)ncnn23)[C@H](O)[C@@H]1O)Oc1ccc2ccccc2c1 (single isomer, unassigned) [Intermediate S3-a]",28.2
7,CCC(CC)COC(=O)[C@H](C)NP(=O)(OC[C@H]1O[C@@](C#N)(c2ccc3c(N)ncnn23)[C@H](O)[C@@H]1O)Oc1cccc(C(C)(C)C)c1 (some centres unmarked) [Example 68a],60.8
8,"CC(=O)O[C@H]1[C@@H](OC(C)=O)[C@](C#N)(c2ccc3c(N)ncnn23)O[C@@H]1COP(=O)(N[C@@H](C)C(=O)OC1CCC1)Oc1ccc(C2CC2)cc1 (single isomer, unassigned) [Example 53a]",38.1
9,"COC(C)(C)CCOC(=O)[C@H](C)NP(=O)(OC[C@H]1O[C@@](C#N)(c2ccc3c(N)ncnn23)[C@H](O)[C@@H]1O)Oc1ccccc1 (stereo partly drawn) [Example 75, (3-methoxy-3-methyl-butyl) (2S)-2-[[[(2R,3S,4R,5R)-5-(4-aminopyrrolo[2,1-f][1,2,4]triazin-7-yl)-5-cyano-3,4-dihydroxy-tetrahydrofuran-2-yl]methoxy-phenoxy-phosphoryl]amino]propanoate]",289
10,"CCOC(=O)O[C@H]1[C@@H](OC(=O)OCC)[C@](C#N)(c2ccc3c(N)ncnn23)O[C@@H]1CO[P@@](=O)(N[C@@H](C)C(=O)OCC(CC)CC)Oc1ccccc1 [Example 127, 2-ethylbutyl ((S)-(((2R,3R,4R,5R)-5-(4-aminopyrrolo[2,1-f][1,2,4]triazin-7-yl)-5-cyano-3,4-bis((ethoxycarbonyl)oxy)tetrahydrofuran-2-yl)methoxy)(phenoxy)phosphoryl)-L-alaninate]",34.1
11,"CCC(CC)COC(=O)[C@H](C)NP(=O)(OC[C@H]1O[C@@](C#N)(c2ccc3c(N)ncnn23)[C@H](OC(=O)C(C)C)[C@@H]1OC(=O)C(C)C)Oc1ccc(C[C@H](NC(=O)OCc2ccccc2)C(=O)OCCC(C)C)cc1 (stereo partly drawn) [Example 72, (2R,3R,4R,5R)-2-(4-aminopyrrolo[2,1-f][1,2,4]triazin-7-yl)-5-((((4-((S)-2-(((benzyloxy)carbonyl)amino)-3-(isopentyloxy)-3-oxopropyl)phenoxy)(((S)-1-(2-ethylbutoxy)-1-oxopropan-2-yl)amino)phosphoryl)oxy)methyl)-2-cyanotetrahydrofuran-3,4-diyl bis(2-methylpropanoate)]",556
12,"CCOC(=O)O[C@H]1[C@@H](OC(=O)OCC)[C@](C#N)(c2ccc3c(N)ncnn23)O[C@@H]1COP(=O)(N[C@@H](C)C(=O)OCC)Oc1ccc(C(C)(C)C)cc1 (stereo partly drawn) [Example 124, ethyl ((((2R,3R,4R,5R)-5-(4-aminopyrrolo[2,1-f][1,2,4]triazin-7-yl)-5-cyano-3,4-bis((ethoxycarbonyl)oxy)tetrahydrofuran-2-yl)methoxy)(4-(tert-butyl)phenoxy)phosphoryl)-L-alaninate]",67.1
13,"COC(C)(C)COC(=O)[C@H](C)NP(=O)(OC[C@H]1O[C@@](C#N)(c2ccc3c(N)ncnn23)[C@H](O)[C@@H]1O)Oc1ccc(C(C)(C)C)cc1 (stereo partly drawn) [Example 111, 2-methoxy-2-methylpropyl ((((2R,3S,4R,5R)-5-(4-aminopyrrolo[2,1-f][1,2,4]triazin-7-yl)-5-cyano-3,4-dihydroxytetrahydrofuran-2-yl)methoxy)(4-(tert-butyl)phenoxy)phosphoryl)-L-alaninate]",846
14,"CCC(=O)O[C@@H]1[C@H](OC(=O)C(N)C(C)C)[C@@H](COP(=O)(N[C@@H](C)C(=O)OCC(CC)CC)Oc2ccccc2)O[C@@]1(C#N)c1ccc2c(N)ncnn12 (stereo in doubt) [Example 88, [(2R,3R,4R,5R)-5-(4-aminopyrrolo[2,1-f][1,2,4]triazin-7-yl)-5-cyano-2-[[[[(1S)-2-(2-ethylbutoxy)-1-methyl-2-oxo-ethyl]amino]-phenoxy-phosphoryl]oxymethyl]-4-propanoyloxy-tetrahydrofuran-3-yl] (2R)-2-amino-3-methyl-butanoate]",21.4
15,"CC(C)C(=O)O[C@H]1[C@@H](OC(=O)C(C)C)[C@](C#N)(c2ccc3c(N)ncnn23)O[C@@H]1COP(=O)(N[C@@H](C)C(=O)O[C@H]1CC[C@H](C(F)(F)F)CC1)Oc1ccc(C(C)(C)C)cc1 (single isomer, unassigned) [Example 85a]",62.7
16,"CCCCCCOC(=O)[C@H](C)NP(=O)(OC[C@H]1O[C@@](C#N)(c2ccc3c(N)ncnn23)[C@H](OC(=O)C(C)C)[C@@H]1OC(=O)C(C)C)Oc1ccc(C(C)(C)C)cc1 (stereo partly drawn) [Example 125, (2R,3R,4R,5R)-2-(4-aminopyrrolo[2,1-f][1,2,4]triazin-7-yl)-5-((((4-(tert-butyl)phenoxy)(((S)-1-(hexyloxy)-1-oxopropan-2-yl)amino)phosphoryl)oxy)methyl)-2-cyanotetrahydrofuran-3,4-diyl bis(2-methylpropanoate)]",21.1
17,"CCC(CC)COC(=O)[C@H](C)NP(=O)(OC[C@H]1O[C@@](C#N)(c2ccc3c(N)ncnn23)[C@H](OC(=O)C(C)C)[C@@H]1OC(=O)C(C)C)Oc1cccc(C(C)(C)C)c1 (stereo partly drawn) [Example 91, [(2R,3R,4R,5R)-5-(4-aminopyrrolo[2,1-f][1,2,4]triazin-7-yl)-2-[[(3-tert-butylphenoxy)-[[(1S)-2-(2-ethylbutoxy)-1-methyl-2-oxo-ethyl]amino]phosphoryl]oxymethyl]-5-cyano-4-(2-methylpropanoyloxy)tetrahydrofuran-3-yl] 2-methylpropanoate]",194
18,"CC(C)C(=O)O[C@H]1[C@@H](OC(=O)C(C)C)[C@](C#N)(c2ccc3c(N)ncnn23)O[C@@H]1COP(=O)(N[C@@H](C)C(=O)OCCC(C)(C)C)Oc1ccc(C(C)(C)C)cc1 (stereo partly drawn) [Example 62, [(2R,3R,4R,5R)-5-(4-aminopyrrolo[2,1-f][1,2,4]triazin-7-yl)-2-[[(4-tert-butylphenoxy)-[[(1S)-2-(3,3-dimethylbutoxy)-1-methyl-2-oxo-ethyl]amino]phosphoryl]oxymethyl]-5-cyano-4-(2-methylpropanoyloxy)tetrahydrofuran-3-yl] 2-methylpropanoate]",70.6

# Same assay, conditions: read-out: EC50 RSV HEP2 96; HEp-2 cells, RSV A2, MOI=4, 4 days, 96 well; Table 3
row,Structure (SMILES),EC50 [nM]
1,"C[C@H](NP(=O)(OC[C@H]1O[C@@](C#N)(c2ccc3c(N)ncnn23)[C@H](O)[C@@H]1O)Oc1ccc(C(C)(C)C)cc1)C(=O)O[C@H]1CC[C@H](C(F)(F)F)CC1 (single isomer, unassigned) [Example 84b]",186
2,CCOC(=O)[C@H](C)NP(=O)(OC[C@H]1O[C@@](C#N)(c2ccc3c(N)ncnn23)[C@H](O)[C@@H]1O)Oc1ccc(C(C)C)cc1 (some centres unmarked) [Example 63b],98.6
3,"CC(C)C(=O)O[C@H]1[C@@H](OC(=O)C(C)C)[C@](C#N)(c2ccc3c(N)ncnn23)O[C@@H]1COP(=O)(N[C@@H](C)C(=O)OCCC(C)(C)C)Oc1ccccc1 (single isomer, unassigned) [Example 56a]",35.5
4,"CC(C)C(=O)O[C@H]1[C@@H](OC(=O)C(C)C)[C@](C#N)(c2ccc3c(N)ncnn23)O[C@@H]1COP(=O)(N[C@@H](C)C(=O)OCCC(C)(C)C)Oc1ccccc1 (single isomer, unassigned) [Example 56b]",74.7
5,"C[C@H](NP(=O)(OC[C@H]1O[C@@](C#N)(c2ccc3c(N)ncnn23)[C@H](O)[C@@H]1O)Oc1ccc(C2CC2)cc1)C(=O)OC1CCC1 (stereo partly drawn) [Example 51b, cyclobutyl (2S)-2-[[[(2R,3S,4R,5R)-5-(4-aminopyrrolo[2,1-f][1,2,4]triazin-7-yl)-5-cyano-3,4-dihydroxy-tetrahydrofuran-2-yl]methoxy-(cyclopropylphenoxy)phosphoryl]amino]propanoate]",86.8
